Article PMC8617031, “Development of a BCL-xL and BCL-2 dual degrader with improved anti-leukemic activity,” (Nature Communications, 2021)
Where “and” joins values, the source holds several entries; their conditions need not be identical. Equal entries are not always repeated.

What was measured:
[1] = test system: BCL-xL/PROTAC/VCB ternary complex (HiBit-BCL-xL, HaloTag-VHL); experiment: NanoBRET intracellular ternary complex formation in 293T cells, BCL-xL; assay type: cell-based, human; details: NanoBRET, 293T cells, 6 h
Method in brief: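 293T cells were transfected with HiBit-BCL-xL or HiBit-BCL-2 plus HaloTag-VHL and incubated overnight with or without HaloTag NanoBRET 618 ligand in 4% FBS Opti-MEM. Serially diluted compounds were applied for 6 h at 37 °C. mBRET ratio from donor emission (450/50 nm) and acceptor emission (610 nm longpass) after Nano-Glo substrate.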

[2] = biological target: T1, BCL-2/PROTAC/VCB ternary complex (Homo sapiens, UniProt P10415+P40337); experiment: AlphaLISA ternary complex formation, cell-free, BCL-2; assay type: binding; details: for in vitro ternary complex formation with BCL-2 (in words): AlphaLISA, cell-free, Fig. 2d, 3f; for AlphaLISA signal, BCL-2/PROTAC/VCB: Fig. 2d raw Alpha reads
T1 construct: pGEX-6P-1-VHL(54-213) (pDL2200) was constructed through Gibson assembly method; made in house; host or cells: bacterial culture (LB broth, IPTG induction)
T1 sequence (P10415 1-211 limits assumed): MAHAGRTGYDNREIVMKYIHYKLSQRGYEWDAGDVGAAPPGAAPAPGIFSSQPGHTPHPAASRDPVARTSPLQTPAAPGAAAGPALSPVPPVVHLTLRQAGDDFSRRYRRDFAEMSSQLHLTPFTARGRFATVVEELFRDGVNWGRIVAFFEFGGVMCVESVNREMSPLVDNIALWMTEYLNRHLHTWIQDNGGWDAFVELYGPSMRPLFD
T1 sequence (P40337 54-213 limits assumed): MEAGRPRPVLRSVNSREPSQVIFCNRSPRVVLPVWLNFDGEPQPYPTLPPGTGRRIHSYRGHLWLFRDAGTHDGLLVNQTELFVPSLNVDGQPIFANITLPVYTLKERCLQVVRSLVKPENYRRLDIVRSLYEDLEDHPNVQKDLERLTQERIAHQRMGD
T1 sequence (Q15369 17-112 partner limits assumed): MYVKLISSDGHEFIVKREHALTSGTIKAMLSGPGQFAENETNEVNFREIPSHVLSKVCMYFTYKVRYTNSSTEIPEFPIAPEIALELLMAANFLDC
T1 sequence (Q15370 whole entry partner): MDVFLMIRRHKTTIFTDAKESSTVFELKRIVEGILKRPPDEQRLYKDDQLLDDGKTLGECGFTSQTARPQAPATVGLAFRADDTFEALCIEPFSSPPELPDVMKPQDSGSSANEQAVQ
Method in brief: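 Cell-free AlphaLISA: 5 nM His-tagged BCL-xL or BCL-2 plus 5 nM GST-VCB incubated with fourfold serially diluted compound 30 min at room temperature. Glutathione donor and His acceptor beads (20 µg/ml each) then added for 15 and 45 min; AlphaLISA signal plotted against compound concentration.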

[3] = compound 200000 nM, 2 technical replicates

| in vitro ternary complex formation with BCL-2 (in words) [2] | AlphaLISA signal, BCL-2/PROTAC/VCB ([2]; compound 0.191 nM) | AlphaLISA signal, BCL-2/PROTAC/VCB ([2]; compound 0.763 nM) | AlphaLISA signal, BCL-2/PROTAC/VCB ([2]; compound 3.052 nM) | AlphaLISA signal, BCL-2/PROTAC/VCB ([2]; compound 12.207 nM) | AlphaLISA signal, BCL-2/PROTAC/VCB ([2]; compound 48.828 nM) | AlphaLISA signal, BCL-2/PROTAC/VCB ([2]; compound 195.31 nM) | AlphaLISA signal, BCL-2/PROTAC/VCB ([2]; compound 781.25 nM) | AlphaLISA signal, BCL-2/PROTAC/VCB ([2]; compound 3125 nM) | AlphaLISA signal, BCL-2/PROTAC/VCB ([2]; compound 12500 nM) | AlphaLISA signal, BCL-2/PROTAC/VCB ([2]; compound 50000 nM) | AlphaLISA signal, BCL-2/PROTAC/VCB [2, 3] | Compound | intracellular ternary complex formation with BCL-xL (in words) [1] |
| --- | --- | --- | --- | --- | --- | --- | --- | --- | --- | --- | --- | --- | --- |
| stronger ternary complexes | 16425 and 15906 | 18031 and 17435 | 30431 and 31755 | 272991 and 264284 | 1222232 and 1254048 | 1139558 and 1151559 | 1076543 and 1153682 | 286448 and 313784 | 33420 and 31990 | 13658 and 13269 | 8289 and 7903 | Cc1ncsc1-c1ccc([C@H](C)NC(=O)[C@@H]2C[C@@H](O)CN2C(=O)[C@@H](NC(=O)CCCCC(=O)N2CCN(CC3(C)CCC(c4ccc(Cl)cc4)=C(CN4CCN(c5ccc(C(=O)NS(=O)(=O)c6ccc(N[C@H](CCN7CCOCC7)CSc7ccccc7)c(S(=O)(=O)C(F)(F)F)c6)cc5)CC4)C3)CC2)C(C)(C)C)cc1 (stereo partly drawn) [PPC6] | stronger BCL-xL/PROTAC/VHL-EloC-EloB (VCB) ternary complexes |
| stronger ternary complexes | – | 20141 and 15109 | 29796 and 29041 | 146984 and 135341 | 1032585 and 1008497 | 1592216 and 1719187 | 1513830 and 1470142 | 403994 and 403317 | 43692 and 35758 | 12115 and 13570 | 14257 and 11084 | Cc1ncsc1-c1ccc([C@H](C)NC(=O)[C@@H]2C[C@@H](O)CN2C(=O)[C@@H](NC(=O)CCCCCC(=O)N2CCN(CC3(C)CCC(c4ccc(Cl)cc4)=C(CN4CCN(c5ccc(C(=O)NS(=O)(=O)c6ccc(N[C@H](CCN7CCOCC7)CSc7ccccc7)c(S(=O)(=O)C(F)(F)F)c6)cc5)CC4)C3)CC2)C(C)(C)C)cc1 (stereo partly drawn) [PPC7] | stronger BCL-xL/PROTAC/VHL-EloC-EloB (VCB) ternary complexes |
| stronger ternary complexes | 15495 and 15269 | 16981 and 16694 | 31764 and 30263 | 220610 and 232235 | 1164349 and 1304184 | 1706795 and 1639825 | 1791615 and 1848085 | 524010 and 562226 | 80335 and 78686 | 17935 and 18240 | 8109 and 11043 | Cc1ncsc1-c1ccc([C@H](C)NC(=O)[C@@H]2C[C@@H](O)CN2C(=O)[C@@H](NC(=O)CCCCCCC(=O)N2CCN(CC3(C)CCC(c4ccc(Cl)cc4)=C(CN4CCN(c5ccc(C(=O)NS(=O)(=O)c6ccc(N[C@H](CCN7CCOCC7)CSc7ccccc7)c(S(=O)(=O)C(F)(F)F)c6)cc5)CC4)C3)CC2)C(C)(C)C)cc1 (stereo partly drawn) [PPC8] | stronger BCL-xL/PROTAC/VHL-EloC-EloB (VCB) ternary complexes |
| much weaker ternary complexes | 13571 and 17652 | 17336 and 18248 | 22108 and 21304 | 71357 and 62189 | 336659 and 328291 | 357647 and 419151 | 267337 and 283839 | 78279 and 78565 | 15094 and 15494 | 7032 and 8982 | 9255 and 9885 | Cc1ncsc1-c1ccc([C@H](C)NC(=O)[C@@H]2C[C@@H](O)CN2C(=O)[C@@H](NC(=O)CCCCCCCC(=O)N2CCN(CC3(C)CCC(c4ccc(Cl)cc4)=C(CN4CCN(c5ccc(C(=O)NS(=O)(=O)c6ccc(N[C@H](CCN7CCOCC7)CSc7ccccc7)c(S(=O)(=O)C(F)(F)F)c6)cc5)CC4)C3)CC2)C(C)(C)C)cc1 (stereo partly drawn) [PPC9] | stronger BCL-xL/PROTAC/VHL-EloC-EloB (VCB) ternary complexes |
